Source: patent US9226509B2, “Phagodeterrent compounds of fungal origin” (Consiglio Nazionale Delle Ricerche, priority 2011, dated 2016)

System: aphid Rhopalosiphum padi
Experiment: Assay of the phagodeterrent activity of the R—OH alcohols (two-leaf choice test on wheat leaves in Petri dishes)
Assay type: in vivo
Details: for Bonferroni test: Treated media (mean number of aphids on treated leaves): wheat leaves, recorded each hour for 8 hours; for Bonferroni test: significance of treated vs control media: treated vs 5% methanol control leaf
Method: Treatment of wheat leaves consisted of immersion of the same for 10 seconds in aqueous suspensions of 5% methanol of the different alcohols, some of which were also tested at different concentrations.
As a control, the same number of leaves was prepared by immersion in an aqueous solution of 5% methanol only.
Assay of the Phaqodeterrent Activity of the R—OH Alcohols:
Petri dishes 9 cm in diameter were used, into each of which two wheat leaves were arranged in parallel and separated from one another by a distance of approximately 4 cm; one leaf was treated with the suspension in 5% methanol of alcohol at various concentrations, and the other control leaf was washed with a solution of 5% methanol. Aphids of the species Rhopalosiphum padi were introduced to the dishes (one per dish) at equal distance from the two leaves.
For each test, 10 aphids were used and the same test was repeated at least 12 times, for at least 120 aphids. The number of aphids present on the treated leaves and on the control leaves was recorded each hour for a total of 8 hours.
The raw data relating to the food choices of the aphids were analysed using the Generalised Linear Model (GLM) procedure for repeated measurements (SPSS release 15.01) and reported in Table 1. The differences of the media between the number of aphids per leaf at each […] and the number of aphids on corresponding control leaves were analysed and corrected by using the Bonferroni test for multiple comparisons.

[1] = alcohol 1.2 mM in 5% methanol aqueous suspension
[2] = alcohol 0.15 mM in 5% methanol aqueous suspension
[3] = alcohol 0.3 mM in 5% methanol aqueous suspension
[4] = alcohol 0.6 mM in 5% methanol aqueous suspension

Row | Compound | Bonferroni test: Treated media (mean number of aphids on treated leaves) [1] | Bonferroni test: significance of treated vs control media (alcohol 1.2 mM) | Bonferroni test: Treated media (mean number of aphids on treated leaves) [2] | Bonferroni test: significance of treated vs control media (alcohol 0.15 mM) | Bonferroni test: Treated media (mean number of aphids on treated leaves) [3] | Bonferroni test: significance of treated vs control media (alcohol 0.3 mM) | Bonferroni test: Treated media (mean number of aphids on treated leaves) [4] | Bonferroni test: significance of treated vs control media (alcohol 0.6 mM) | Bonferroni test: Treated media (mean number of aphids on treated leaves) (alcohol 0.075 mM in 5% methanol aqueous suspension) | Bonferroni test: significance of treated vs control media (alcohol 0.075 mM)
1 | CCCCCCCC/C=C\CCCCCCCCO [Cis-9-octadecenol] | 2.281 ± 0.283 | ** (** P < 0.01) | – | – | – | – | – | – | – | –
2 | CCCCCCCCCCCCCCCCCCCCO [Eicosanol] | 3.042 ± 0.303 | ** (** P < 0.01) | – | – | – | – | – | – | – | –
3 | CCCCCCCCCCCCCCCCCO [Heptadecanol] | 1.094 ± 0.294 | ** (** P < 0.01) | 3.240 ± 0.410 | ** (** P < 0.01) | 3.063 ± 0.532 | ** (** P < 0.01) | 2.177 ± 0.298 | ** (** P < 0.01) | – | –
4 | CCCCCCCCCCCCCCCCO [Hexadecanol] | 1.308 ± 0.315 | ** (** P < 0.01) | 3.938 ± 0.429 | * (*P < 0.05) | 2.635 ± 0.323 | ** (** P < 0.01) | 2.281 ± 0.371 | ** (** P < 0.01) | – | –
5 | CCCCCCCCCCCCCCCCCCCO [Nonadecanol] | 3.427 ± 0.391 | * (*P < 0.05) | – | – | – | – | – | – | – | –
6 | CCCCCCCCCCCCCCCO [Pentadecanol] | 1.365 ± 0.301 | ** (** P < 0.01) | 3.406 ± 0.405 | ** (** P < 0.01) | 2.271 ± 0.283 | ** (** P < 0.01) | 2.385 ± 0.237 | ** (** P < 0.01) | 3.073 ± 0.335 | ** (** P < 0.01)
7 | CCCCCCCCCCCCCCO [Tetradecanol] | 1.938 ± 0.322 | ** (** P < 0.01) | 2.375 ± 0.370 | ** (** P < 0.01) | 3.271 ± 0.217 | ** (** P < 0.01) | 2.365 ± 0.264 | ** (** P < 0.01) | – | –
8 | Octadecenol | 2.469 ± 0.333 | ** (** P < 0.01) | – | – | – | – | – | – | – | –
